Reference: patent US9718828B2 (MERCK SHARP & DOHME CORP., priority 2011, dated 2017)
Where a name gives a salt, the structure may show the parent alone.

target: hBTK (full-length BTK, 6HIS-tag cleaved) (Homo sapiens (Human), UniProt Q06187); assay: BTK enzymatic activity, LANCE TR-FRET assay (Assay Method C); type: biochemical; conditions: LANCE TR-FRET, 50 pM hBTK, 25 μM ATP; class 100-1000 is given as ≧100 nM-<1 μM; read-out: IC50 Btk activity values - Assay Method C
Sequence (Q06187 whole entry): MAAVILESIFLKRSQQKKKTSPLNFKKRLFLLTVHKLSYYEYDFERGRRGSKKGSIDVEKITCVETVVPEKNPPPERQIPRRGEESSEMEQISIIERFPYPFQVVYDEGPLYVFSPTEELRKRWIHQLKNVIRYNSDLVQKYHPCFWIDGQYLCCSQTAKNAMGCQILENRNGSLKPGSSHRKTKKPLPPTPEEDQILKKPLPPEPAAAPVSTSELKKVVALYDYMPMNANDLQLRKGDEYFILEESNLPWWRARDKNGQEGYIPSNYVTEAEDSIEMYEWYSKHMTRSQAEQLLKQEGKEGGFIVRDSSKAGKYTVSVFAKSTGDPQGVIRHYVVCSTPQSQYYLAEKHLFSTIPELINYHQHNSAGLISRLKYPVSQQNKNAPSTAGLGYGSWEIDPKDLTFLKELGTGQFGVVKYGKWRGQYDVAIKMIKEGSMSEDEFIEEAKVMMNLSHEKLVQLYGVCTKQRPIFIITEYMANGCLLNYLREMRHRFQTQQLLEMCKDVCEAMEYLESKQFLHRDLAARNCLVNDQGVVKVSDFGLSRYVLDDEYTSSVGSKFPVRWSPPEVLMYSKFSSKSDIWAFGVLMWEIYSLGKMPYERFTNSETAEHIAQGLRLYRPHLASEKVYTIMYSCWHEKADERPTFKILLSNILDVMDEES

Row | IC50 [nM] | SMILES
1 | < 10 | Cc1cnc(NC(=O)c2ccc(-c3nc([C@@H]4CCCN(C(=O)C5(C)COC5)C4)n4ccnc(N)c34)cc2)s1 [Example 366, 4-(8-amino-3-{(3R)-1-[(3-methyloxetan-3-yl)carbonyl]piperidin-3-yl}imidazo[1,5-a]pyrazin-1-yl)-N-(5-methyl-1,3-thiazol-2-yl)benzamide]
2 | < 10 | CC1(C(=O)N2CCO[C@@H](c3nc(-c4ccc(C(=O)Nc5cc(C(F)(F)F)ccn5)cc4F)c4c(N)nccn34)C2)COC1 [Example 513, 4-(8-amino-3-{(2R)-4-[(3-methyloxetan-3-yl)carbonyl]morpholin-2-yl}imidazo[1,5-a]pyrazin-1-yl)-3-fluoro-N-[4-(trifluoromethyl)pyridin-2-yl]benzamide, TFA salt]
3 | 10 to 100 | CC1(C(=O)N2CCC[C@@H](c3nc(-c4ccc(C(=O)Nc5cc(C(F)(F)F)ccn5)cc4)c4c(N)ncc(C5(O)COC5)n34)C2)COC1 [Example 469, 4-[8-amino-5-(3-hydroxyoxetan-3-yl)-3-{(3R)-1-[(3-methyloxetan-3-yl)carbonyl]piperidin-3-yl}imidazo[1,5-a]pyrazin-1-yl]-N-[4-(trifluoromethyl)pyridin-2-yl]benzamide]
4 | 10 to 100 | CC1(C(=O)N2CCC[C@@H](c3nc(-c4ccc(C(=O)Nc5cnsc5)cc4)c4c(N)nccn34)C2)COC1 [Example 370, 4-(8-amino-3-{(3R)-1-[(3-methyloxetan-3-yl)carbonyl]piperidin-3-yl}imidazo[1,5-a]pyrazin-1-yl)-N-isothiazol-4-ylbenzamide]
5 | < 10 | C[C@H]1CC[C@@H](c2nc(-c3ccc(C(=O)Nc4cc(C(C)(F)F)ccn4)cc3)c3c(N)nccn23)CN1C(=O)C1(C)COC1 [Example 413, 4-(8-amino-3-{(3R,6S)-6-methyl-1-[(3-methyloxetan-3-yl)carbonyl]piperidin-3-yl}imidazo[1,5-a]pyrazin-1-yl)-N-[4-(1,1-difluoroethyl)pyridin-2-yl]benzamide]
6 | < 10 | CN1CC[C@@H](C(=O)N2CCC[C@@H](c3nc(-c4ccc(C(=O)Nc5cc(C(F)(F)F)ccn5)cc4)c4c(N)nccn34)C2)C1 [Example 348, 4-(8-amino-3-[(3R)-1-{[(3R)-1-methylpyrrolidin-3-yl]carbonyl}piperidin-3-yl]imidazo[1,5-a]pyrazin-1-yl}-N-[4-(trifluoromethyl)pyridin-2-yl]benzamide]
7 | < 10 | Cc1cc(NC(=O)c2ccc(-c3nc([C@@H]4CCCN(C(=O)C5(C)COC5)C4)n4ccnc(N)c34)cc2)ncc1F [Example 360, 4-(8-amino-3-{(3R)-1-[(3-methyloxetan-3-yl)carbonyl]piperidin-3-yl}imidazo[1,5-a]pyrazin-1-yl)-N-(5-fluoro-4-methylpyridin-2-yl)benzamide]
8 | < 10 | Cc1cnc(N)c2c(-c3ccc(C(=O)Nc4cc(C(C)(F)F)ccn4)cc3)nc([C@@H]3CCCN(C(=O)C4(C)COC4)C3)n12 [Example 454, 4-(8-amino-5-methyl-3-{(3R)-1-[(3-methyloxetan-3-yl)carbonyl]piperidin-3-yl}imidazo[1,5-a]pyrazin-1-yl)-N-[4-(1,1-difluoroethyl)pyridin-2-yl]benzamide]
9 | < 10 | COCC1(C(=O)N2CCC[C@@H](c3nc(-c4ccc(C(=O)Nc5cc(C(F)(F)F)ccn5)cc4)c4c(N)nccn34)C2)CC1 [Example 334, 4-{8-amino-3-[(3R)-1-{[1-(methoxymethyl)cyclopropyl]carbonyl}piperidin-3-yl]imidazo[1,5-a]pyrazin-1-yl}-N-[4-(trifluoromethyl)pyridin-2-yl]benzamide]
10 | < 10 | CO[C@H](C)c1cnc(N)c2c(-c3ccc(C(=O)Nc4cc(C(F)(F)F)ccn4)cc3)nc([C@@H]3CCCN(C(=O)C4(C)COC4)C3)n12 [Example 467, 4-(8-amino-5-[(1R)-1-methoxyethyl]-3-{(3R)-1-[(3-methyloxetan-3-yl)carbonyl]piperidin-3-yl}imidazo[1,5-a]pyrazin-1-yl)-N-[4-(trifluoromethyl)pyridin-2-yl]benzamide]
11 | < 10 | Nc1nccn2c([C@@H]3CCCN(C(=O)C4(O)CC4)C3)nc(-c3ccc(C(=O)Nc4cc(C(F)(F)F)ccn4)cc3)c12 [Example 342, 4-(8-amino-3-{(3R)-1-[(1-hydroxycyclopropyl)carbonyl]piperidin-3-yl}imidazo[1,5-a]pyrazin-1-yl)-N-[4-(trifluoromethyl)pyridin-2-yl]benzamide]
12 | 10 to 100 | CC1(C(=O)N2CCC[C@@H](c3nc(-c4ccc(C(=O)Nc5ccc(C(F)(F)F)cn5)cc4)c4c(N)nccn34)C2)COC1 [Example 359, 4-(8-amino-3-{(3R)-1-[(3-methyloxetan-3-yl)carbonyl]piperidin-3-yl}imidazo[1,5-a]pyrazin-1-yl)-N-[5-(trifluoromethyl)pyridin-2-yl]benzamide]
13 | < 10 | C[C@H]1CO[C@@H](c2nc(-c3ccc(C(=O)Nc4cc(C(F)(F)F)ccn4)cc3)c3c(N)nccn23)CN1C(=O)C1CC1 [Example 516, 4-{8-amino-3-[(2R,5S)-4-(cyclopropylcarbonyl)-5-methylmorpholin-2-yl]imidazo[1,5-a]pyrazin-1-yl}-N-[4-(trifluoromethyl)pyridin-2-yl]benzamide, TFA salt]

More lines, now with the values behind:

Row | SMILES | IC50 [nM]
14 | CCN1CCO[C@H](c2nc(-c3ccc(C(=O)Nc4cc(C(F)(F)F)ccn4)cc3)c3c(N)nccn23)C1 [Example 534, 4-{8-amino-3-[(2S)-4-ethylmorpholin-2-yl]imidazo[1,5-a]pyrazin-1-yl}-N-[4-(trifluoromethyl)pyridin-2-yl]benzamide] | 10 to 100
15 | CSCCC(=O)N1CCO[C@@H](c2nc(-c3ccc(C(=O)Nc4cc(C(F)(F)F)ccn4)cc3)c3c(N)nccn23)C1 [Example 502, 4-(8-amino-3-{(2R)-4-[3-(methylsulfanyl)propanoyl]morpholin-2-yl}imidazo[1,5-a]pyrazin-1-yl)-N-[4-(trifluoromethyl)pyridin-2-yl]benzamide] | < 10
16 | CCC(=O)N1CCC[C@@H](c2nc(-c3ccc(C(=O)Nc4cc(C(F)(F)F)ccn4)cc3F)c3c(N)nccn23)C1 [Example 487, 4-{8-amino-3-[(3R)-1-propanoylpiperidin-3-yl]imidazo[1,5-a]pyrazin-1-yl}-3-fluoro-N-[4-(trifluoromethyl)pyridin-2-yl]benzamide] | < 10
17 | CC(=O)N1C[C@H](c2nc(-c3ccc(C(=O)Nc4cc(C(F)F)ccn4)cc3F)c3c(N)ncc(C)n23)CC[C@@H]1C [Example 461, 4-{3-[(3R,6S)-1-acetyl-6-methylpiperidin-3-yl]-8-amino-5-methylimidazo[1,5-a]pyrazin-1-yl}-N-[4-(difluoromethyl)pyridin-2-yl]-3-fluorobenzamide] | < 10
18 | CC(C)COc1ccnc(NC(=O)c2ccc(-c3nc([C@@H]4CC[C@H](C)N(C(=O)C5(C)COC5)C4)n4ccnc(N)c34)cc2)c1 [Example 417, 4-(8-amino-3-{(3R,6S)-6-methyl-1-[(3-methyloxetan-3-yl)carbonyl]piperidin-3-yl}imidazo[1,5-a]pyrazin-1-yl)-N-[4-(2-methylpropoxy)pyridin-2-yl]benzamide] | < 10
19 | Cc1cnc(N)c2c(-c3ccc(C(=O)Nc4cc(C(F)(F)F)ccn4)cc3)nc([C@H]3CN(C(=O)C(F)F)CCO3)n12 [Example 538, 4-{8-amino-3-[(2R)-4-(difluoroacetyl)morpholin-2-yl]-5-methylimidazo[1,5-a]pyrazin-1-yl}-N-[4-(trifluoromethyl)pyridin-2-yl]benzamide, TFA salt] | < 10
20 | Nc1ncc(Cl)n2c([C@H]3CN(CC(F)(F)F)CCO3)nc(-c3ccc(C(=O)Nc4cc(C(F)(F)F)ccn4)cc3)c12 [Example 526, 4-{8-amino-5-chloro-3-[(2R)-4-(2,2,2-trifluoroethyl)morpholin-2-yl]imidazo[1,5-a]pyrazin-1-yl}-N-[4-(trifluoromethyl)pyridin-2-yl]benzamide] | < 10
21 | COCCOCC(=O)N1CCO[C@@H](c2nc(-c3ccc(C(=O)Nc4cc(C(F)(F)F)ccn4)cc3)c3c(N)ncc(Cl)n23)C1 [Example 529, 4-(8-amino-5-chloro-3-{(2R)-4-[(2-methoxyethoxy)acetyl]morpholin-2-yl}imidazo[1,5-a]pyrazin-1-yl)-N-[4-(trifluoromethyl)pyridin-2-yl]benzamide] | < 10
22 | CCC(=O)N1CCC[C@@H](c2nc(-c3ccc(C(=O)Nc4cc(C(F)(F)F)ccn4)cc3OC)c3c(N)nccn23)C1 [Example 490, 4-{8-amino-3-[(3R)-1-propanoylpiperidin-3-yl]imidazo[1,5-a]pyrazin-1-yl}-3-methoxy-N-[4-(trifluoromethyl)pyridin-2-yl]benzamide] | < 10
23 | CCN1CCO[C@@H](c2nc(-c3ccc(C(=O)Nc4cc(C(F)(F)F)ccn4)cc3)c3c(N)ncc(Cl)n23)C1 [Example 522, 4-{8-amino-5-chloro-3-[(2R)-4-ethylmorpholin-2-yl]imidazo[1,5-a]pyrazin-1-yl}-N-[4-(trifluoromethyl)pyridin-2-yl]benzamide] | < 10
24 | Nc1nccn2c([C@H]3CC[C@H](C(F)(F)F)N(C(=O)C4CC4)C3)nc(-c3ccc(C(=O)Nc4cc(F)ccn4)cc3)c12 [Example 424, 4-{8-amino-3-[(3S,6R)-1-(cyclopropylcarbonyl)-6-(trifluoromethyl)piperidin-3-yl]imidazo[1,5-a]pyrazin-1-yl}-N-(4-fluoropyridin-2-yl)benzamide] | < 10
25 | COc1ccnc(NC(=O)c2ccc(-c3nc([C@@H]4CCCN(C(C)=O)C4)n4c(C)cnc(N)c34)cc2)c1 [Example 460, 4-{3-[(3R)-1-acetylpiperidin-3-yl]-8-amino-5-methylimidazo[1,5-a]pyrazin-1-yl}-N-(4-methoxypyridin-2-yl)benzamide] | < 10
26 | Cn1cc2c(n1)CCC[C@H]2n1nc(-c2ccc(C(=O)Nc3cc(C(F)(F)F)ccn3)cc2)c2c(N)ncnc21 [Example 557, 4-{4-amino-1-[(4R)-2-methyl-4,5,6,7-tetrahydro-2H-indazol-4-yl]-1H-pyrazolo[3,4-d]pyrimidin-3-yl}-N-[4-(trifluoromethyl)pyridin-2-yl]benzamide, TFA salt] | 100 to 1000

same assay, conditions: Table D; Assay Method C (LANCE TR-FRET), 50 pM hBTK, 25 μM ATP; read-out: IC50 BTK activity value

Row | IC50 [nM] | SMILES
27 | 0.2 | C[C@H]1CC[C@@H](c2nc(-c3ccc(C(=O)Nc4cc(C(C)(F)F)ccn4)cc3)c3c(N)nccn23)CN1C(=O)C1(C)COC1 [Example 413, 4-(8-amino-3-{(3R,6S)-6-methyl-1-[(3-methyloxetan-3-yl)carbonyl]piperidin-3-yl}imidazo[1,5-a]pyrazin-1-yl)-N-[4-(1,1-difluoroethyl)pyridin-2-yl]benzamide]
